What is called IC50 is the concentration at which inhibition is half-maximal.

SMILES strings stand for the structures. Where only a bound is given, the exact number is not on record here.

Common to all, as to type: biochemical
The target of one assay is T1, MGLL (Mus musculus, UniProt O35678).
T1 construct: Brain; from tissue; host or cells: mouse brain proteome
T1 sequence (O35678 1-303): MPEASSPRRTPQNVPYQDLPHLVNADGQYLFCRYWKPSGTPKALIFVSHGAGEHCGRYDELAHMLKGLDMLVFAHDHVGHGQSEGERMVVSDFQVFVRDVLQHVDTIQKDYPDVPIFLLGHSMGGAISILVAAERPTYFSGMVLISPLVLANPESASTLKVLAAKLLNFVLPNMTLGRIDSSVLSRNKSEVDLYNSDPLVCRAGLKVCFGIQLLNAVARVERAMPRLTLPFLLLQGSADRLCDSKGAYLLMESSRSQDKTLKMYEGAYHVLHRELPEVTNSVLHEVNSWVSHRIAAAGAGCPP
Nature of the assay: In vitro competitive activity-based protein profiling, mouse brain proteome (MGLL). Further details: IC50 MGLL Brain (Mouse, μM): scale not given here. To be noted: for % Inh MGLL Brain (Mouse, μM): concentration not given (μM).

The target in another assay is T2, MAGL (Homo sapiens, UniProt Q99685).
T2 construct: Proteomes (human prefrontal cortex or cell membrane fractions); from tissue
T2 sequence (Q99685 1-303): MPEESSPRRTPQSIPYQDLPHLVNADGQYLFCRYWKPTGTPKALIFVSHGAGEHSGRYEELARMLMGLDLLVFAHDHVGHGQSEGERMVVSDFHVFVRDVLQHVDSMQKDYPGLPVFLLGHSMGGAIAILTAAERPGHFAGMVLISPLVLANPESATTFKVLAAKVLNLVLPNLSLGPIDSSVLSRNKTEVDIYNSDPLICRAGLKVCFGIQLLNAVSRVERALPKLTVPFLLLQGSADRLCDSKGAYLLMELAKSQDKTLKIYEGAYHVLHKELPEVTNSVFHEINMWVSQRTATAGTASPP
In words: In vitro competitive activity-based protein profiling (FP-Rh or HT-01 probe, gel-based). More on the design: IC50 MGLL PC3 (Human, μM) / IC50 MGLL PFC (Human, μM): scale not given here. To be noted: for % Inh MGLL PC3 (Human, μM) / % Inh MGLL PFC (Human, μM): concentration not given (μM); for IC50: read-out: IC50 MGLL PC3 (Human). The gist of the method:
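Human prefrontal cortex or cell membrane proteomes (1.0 mg/mL total protein) were preincubated with varying inhibitor concentrations for 30 min at 37° C. FP-Rh or HT-01 probe (50 μM DMSO stock) was then added for 30 min at room temperature, and samples were quenched in SDS loading buffer and resolved by SDS-PAGE.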

Another assay concerns the target T3, ABHD6 (Mus musculus, UniProt Q8R2Y0).
T3 construct: Brain; from tissue; host or cells: mouse brain proteome
T3 sequence (Q8R2Y0 1-336): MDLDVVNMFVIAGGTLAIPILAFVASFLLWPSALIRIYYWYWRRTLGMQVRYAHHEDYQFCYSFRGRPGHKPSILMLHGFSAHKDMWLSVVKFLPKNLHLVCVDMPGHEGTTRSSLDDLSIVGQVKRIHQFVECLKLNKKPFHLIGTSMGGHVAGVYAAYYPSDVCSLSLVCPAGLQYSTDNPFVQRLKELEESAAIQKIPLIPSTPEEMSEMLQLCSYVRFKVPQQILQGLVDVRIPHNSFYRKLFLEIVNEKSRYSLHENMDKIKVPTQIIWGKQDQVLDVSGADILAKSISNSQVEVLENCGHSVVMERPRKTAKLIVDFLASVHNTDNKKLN
Nature of the assay: In vitro competitive activity-based protein profiling, mouse brain proteome (ABHD6). As to conditions: mouse brain proteome; concentration not given (μM). The procedure: [The source words this procedure for another target and reports this target under the same test.] In Vitro Competitive Activity-Based Protein Profiling.
Proteomes (human prefrontal cortex or cell membrane fractions) (50 μL, 1.0 mg/mL total protein concentration) were preincubated with varying concentrations of inhibitors at 37° C. After 30 min, FP-Rh or HT-01 (1.0 μL, 50 μM in DMSO) was added and the mixture was incubated for another 30 min at room temperature. Reactions were quenched with SDS loading buffer (15 μL-4×) and run on SDS-PAGE.

The mark [1] stands for this setting: prefrontal cortex (PFC) proteome.

Regarding `CN(Cc1ccc(C(F)(F)F)cc1C1(C(=O)O)CCCC1)C1(C)CCN(C(=O)OC(C(F)(F)F)C(F)(F)F)CC1` [Example 133, l-(2-{[(1-{[(1,1,1,3,3,3-Hexafluoropropan-2-yl)oxy]carbonyl}-4-methylpiperidin-4-yl)(methyl)amino]methyl}-5-(trifluoromethyl)phenyl)cyclop entane-1-carboxylic acid], the “% Inh MGLL Brain (Mouse, μM)” value on MGLL was “### (### is ≥75%)”. Also, the “% Inh MGLL PC3 (Human, μM)” value at MAGL (PC3 cell proteome) is recorded as “### (### is ≥75%)”. Also, the “% Inh ABHD6 Brain (Mouse, μM)” value on ABHD6 is “# (# is ≤25%)”.
In the case of `O=C(O)CN1CCC2(CCN(c3cc(C(F)(F)F)ccc3CN3CCCC34CCN(C(=O)OC(C(F)(F)F)C(F)(F)F)CC4)CC2)C1` [Example 153, 2-(8-(2-((8-(((1,1,1,3,3,3-Hexafluoropropan-2-yl)oxy)carbonyl)-1,8-diazaspiro[4.5]decan-1-yl)methyl)-5-(trifluoromethyl)phenyl)-2,8-diazaspiro[4.5]decan-2-yl)acetic acid], at MGLL, the “% Inh MGLL Brain (Mouse, μM)” value was “### (### is ≥75%)”. Further, the “% Inh MGLL PFC (Human, μM)” value on MAGL (setting [1]) is recorded as “### (### is ≥75%)”. At ABHD6, the “% Inh ABHD6 Brain (Mouse, μM)” value is reported as “# (# is ≤25%)”.
Regarding `O=C(O)CN1CCN(c2cc(CN3CCCC34CCN(C(=O)OC(C(F)(F)F)C(F)(F)F)CC4)cc(C(F)(F)F)c2)CC1` [Example 2, 2-(4-(3-((8-(((1,1,1,3,3,3-Hexafluoropropan-2-yl)oxy)carbonyl)-1,8-diazaspiro[4.5]decan-1-yl)methyl)-5-(trifluoromethyl)phenyl)piperazin-1-yl)acetic acid], at MGLL, the “% Inh MGLL Brain (Mouse, μM)” value was “### (### is ≥75%)”. For the same compound, at MAGL (PC3 cell proteome), the “% Inh MGLL PC3 (Human, μM)” value is “### (### is ≥75%)”. The “% Inh ABHD6 Brain (Mouse, μM)” value on ABHD6 is recorded as “# (# is ≤25%)”.
For the compound `O=C(O)CN1CC2CN(c3cc(C(F)(F)F)ccc3CN3CCCC34CCN(C(=O)OC(C(F)(F)F)C(F)(F)F)CC4)CC2C1` (centres unmarked) [Example 155], the “% Inh MGLL Brain (Mouse, μM)” value on MGLL is given as “### (### is ≥75%)”. In addition, the “% Inh MGLL PFC (Human, μM)” value at MAGL (setting [1]) was “### (### is ≥75%)”. Besides, the “% Inh ABHD6 Brain (Mouse, μM)” value at ABHD6 was “# (# is ≤25%)”.
With `O=C(O)C1COCCN1c1cc(C(F)(F)F)ccc1CN1CC2(CCN(C(=O)OC(C(F)(F)F)C(F)(F)F)CC2)C1` (centres unmarked) [Example 113, 4-(2-((7-(((1,1,1,3,3,3-Hexafluoropropan-2-yl)oxy)carbonyl)-2,7-diazaspiro[3.5]nonan-2-yl)methyl)-5-(trifluoromethyl)phenyl)moiph oline-3-carboxylic acid], on MGLL, the “% Inh MGLL Brain (Mouse, μM)” value was “## (## is between 25 and 75%)”. For the same compound, on MAGL (setting [1]), the “% Inh MGLL PFC (Human, μM)” value is reported as “# (# is ≤25%)”. For the same compound, the “% Inh ABHD6 Brain (Mouse, μM)” value at ABHD6 is “# (# is ≤25%)”.
On to `O=C(O)CN1CCN(c2cc(C(F)(F)F)ccc2CN2CCCC23CCN(C(=O)OC(C(F)(F)F)C(F)(F)F)CC3)CC1` [Example 3, 2-(4-(2-((8-(((1,1,1,3,3,3-Hexafluoropropan-2-yl)oxy)carbonyl)-1,8-diazaspiro[4.5]decan-1-yl)methyl)-5-(trifluoromethyl)phenyl)piperazin-1-yl)acetic acid], for which, on MGLL, the “IC50 MGLL Brain (Mouse, μM)” value was “* * *” and the “% Inh MGLL Brain (Mouse, μM)” value is given as “### (### is ≥75%)”. For the same compound, on MAGL (PC3 cell proteome), the “IC50 MGLL PC3 (Human, μM)” value is reported as “* * *” and the “% Inh MGLL PC3 (Human, μM)” value is recorded as “### (### is ≥75%)”. Further, the “IC50 MGLL PFC (Human, μM)” value on MAGL (setting [1]) was “* * *”. Also, the “% Inh ABHD6 Brain (Mouse, μM)” value on ABHD6 was “# (# is ≤25%)”.
Take `O=C(O)CN1CCC2(CC1)CCN(c1cc(C(F)(F)F)ccc1CN1CCCC13CCN(C(=O)OC(C(F)(F)F)C(F)(F)F)CC3)C2` [Example 154, 2-(2-(2-((8-(((1,1,1,3,3,3-Hexafluoropropan-2-yl)oxy)carbonyl)-1,8-diazaspiro[4.5]decan-1-yl)methyl)-5-(trifluoromethyl)phenyl)-2,1-diazaspiro[4.5]decan-8-yl)acetic acid]: at MGLL, the “% Inh MGLL Brain (Mouse, μM)” value is “### (### is ≥75%)”. Moreover, the “% Inh MGLL PFC (Human, μM)” value on MAGL (setting [1]) is recorded as “### (### is ≥75%)”. Besides, at ABHD6, the “% Inh ABHD6 Brain (Mouse, μM)” value is given as “# (# is ≤25%)”.
With `CN(Cc1ccc(C(F)(F)F)cc1N1CCC(N2CCC[C@@H]2C(=O)O)CC1)C1(C)CCN(C(=O)OC(C(F)(F)F)C(F)(F)F)CC1` [Example 162, (1-(2-(((1-(((1,1,1,3,3,3-Hexafluoropropan-2-yl)oxy)carbonyl)-4-methylpiperidin-4-yl)(methyl)amino)methyl)-5-(trifluoromethyl)phenyl)piperidin-4-yl)-D-proline], the “% Inh MGLL Brain (Mouse, μM)” value at MGLL is given as “### (### is ≥75%)”. Moreover, at MAGL (PC3 cell proteome), the “% Inh MGLL PC3 (Human, μM)” value is given as “### (### is ≥75%)” and the 50% inhibitory concentration (IC50) is under 0.1 µM. Moreover, on ABHD6, the “% Inh ABHD6 Brain (Mouse, μM)” value is given as “# (# is ≤25%)”.
Turning to `O=C(O)[C@@H]1CCCN1C1CCN(c2cc(C(F)(F)F)ccc2CN2CCCC23CCN(C(=O)OC(C(F)(F)F)C(F)(F)F)CC3)CC1` [Example 164, (1-(2-((8-(((1,1,1,3,3,3-Hexafluoropropan-2-yl)oxy)carbonyl)-1,8-diazaspiro[4.5]decan-1-yl)methyl)-5-(trifluoromethyl)phenyl)piperidin-4-yl)-L-proline], on MGLL, the “% Inh MGLL Brain (Mouse, μM)” value is recorded as “### (### is ≥75%)”. Besides, at MAGL (PC3 cell proteome), the “% Inh MGLL PC3 (Human, μM)” value is given as “### (### is ≥75%)” and the concentration for half-maximal inhibition (IC50) is under 0.1 µM. Moreover, on ABHD6, the “% Inh ABHD6 Brain (Mouse, μM)” value is recorded as “# (# is ≤25%)”.
Take `O=C(O)C1CCCCN1c1cc(C(F)(F)F)ccc1CN1CC2(CCN(C(=O)OC(C(F)(F)F)C(F)(F)F)CC2)C1` (centres unmarked) [Example 23, 1-(2-((7-(((1,1,1,3,3,3-Hexafluoropropan-2-yl)oxy)carbonyl)-2,7-diazaspiro[3.5]nonan-2-yl)methyl)-5-(trifluoromethyl)phenyl)piperidine-2-carboxylic acid]: the “% Inh MGLL Brain (Mouse, μM)” value on MGLL is “# (# is ≤25%)”. Further, the “% Inh MGLL PFC (Human, μM)” value at MAGL (setting [1]) is listed as “### (### is ≥75%)”. Also, the “% Inh ABHD6 Brain (Mouse, μM)” value on ABHD6 is “# (# is ≤25%)”.
As to `O=C(O)c1ccc(CN2CC3(CCN(C(=O)OC(C(F)(F)F)C(F)(F)F)CC3)C2)cc1C(F)(F)F` [Example 131, 4-((7-(((1,1,1,3,3,3-Hexafluoropropan-2-yl)oxy)carbonyl)-2,7-diazaspiro[3,5]nonan-2-yl)methyl)-2-(trifluoromethyl)benzoic acid], on MGLL, the “% Inh MGLL Brain (Mouse, μM)” value was “## (## is between 25 and 75%)”. For the same compound, the “% Inh MGLL PFC (Human, μM)” value at MAGL (setting [1]) is on record as “### (### is ≥75%)”. Moreover, the “% Inh ABHD6 Brain (Mouse, μM)” value at ABHD6 was “### (### is ≥75%)”.
For `O=C(O)CN1CC2CC1CN2c1cc(CN2CC3(CCN(C(=O)OC(C(F)(F)F)C(F)(F)F)CC3)C2)cc(C(F)(F)F)c1` (centres unmarked) [Example 129, 2-(5-{3-[(7-{[(U,l,3,3,3-Hexafluoropropan-2-yl)oxy]carbonyl}-2,7-diazaspiro[3.5]nonan-2-yl)methyl]-5-(trifluoromethyl)phenyl}-2,5-diazabicyclo[2.2.1]heptan-2-yl)acetic acid], the “% Inh MGLL Brain (Mouse, μM)” value at MGLL was “### (### is ≥75%)”. Besides, the “% Inh MGLL PFC (Human, μM)” value at MAGL (setting [1]) was “## (## is between 25 and 75%)”. The “% Inh ABHD6 Brain (Mouse, μM)” value at ABHD6 is recorded as “### (### is ≥75%)”.
Turning to `O=C(O)C1CCN(Cc2cc(C(F)(F)F)ccc2CN2CCC3(CC2)CCN(C(=O)OC(C(F)(F)F)C(F)(F)F)C3)CC1` [Example 220, l-(2-((2-(((1,1,1,3,3,3-Hexafluoropropan-2-yl)oxy)carbonyl)-2,8-diazaspiro[4.5]decan-8-yl)methyl)-5-(trifluoromethyl)benzyl) piperidine-4-carboxylic acid], on MGLL, the “% Inh MGLL Brain (Mouse, μM)” value is “## (## is between 25 and 75%)”. Besides, the “% Inh MGLL PFC (Human, μM)” value at MAGL (setting [1]) was “## (## is between 25 and 75%)”. For the same compound, at ABHD6, the “% Inh ABHD6 Brain (Mouse, μM)” value is “# (# is ≤25%)”.
